Assay results as given in patent publication US10793892B2, “Method for detecting the presence of expanded spectrum β-lactamase-producing bacteria in a sample” (INSERM (INSTITUT NATIONAL DE LA SANTE ET DE LA RECHERCHE …, priority 2011, dated 2020).

Experiments:
[1] = tested on: K. pneumoniae; assay: ESBL NDP test using cultured strains; format: biochemical, Klebsiella pneumoniae; parameters: key: (+) and (−) referred to color change being, red to yellow or unchanged, respectively; (+) and (−) referred to color change being, red to yellow or unchanged, respectively
Experimental: (§1) Strains were isolated on Mueller-Hinton agar (Biorad, Marnes-la-Coquette, France) and incubated at 37° C. for 16 h to 24 h before performing the NDP rapid ESBL test as follows. One calibrated inoculated loop (10 μl) of the tested strain was resuspended in 150 μl of 20 mM Tris-HCl lysis buffer previously distributed in Microbead tubes (Ultraclean Microbial DNA isolation kit Bead Tubes, MO BIO Laboratories, Carlsbad, USA). Mechanical lysis of bacteria was performed by strong agitation of Microbead tubes using a vortex adapter (MO BIO Laboratories) for 30 min at room temperature. This bacterial suspension was centrifuged at 10,000×g at room temperature for 5 min. Thirty μl of the supernatant was mixed in a well of a 96-well tray with 100 μl of a 1 ml solution made of 3 mg of purified cefotaxime sodium salt (Sigma-Aldrich, Saint-Quentin-Fallavier, France) in a pH 7.8 phenol red solution. […]. The phenol red solution was made by taking 2 ml of a concentrated pH 8 phenol solution (made from a mixture of phenol red 0.5% in distilled water) to which 16.6 ml of distilled water was added. The pH value was then adjusted to a 7.8 value by adding drops of a 1 N NaOH solution. Mixture of the phenol red solution and the enzymatic suspension being tested was incubated at 37° C. for 30 min. Similarly, culture extracts were analyzed in wells containing cefotaxime and tazobactam (4 mg/ml). Other concentrations of tazobactam and other ß-lactamase inhibitors were tested giving less clear results (data not shown). […] This definition of test positivity will be applied throughout the study.

[2] = tested on: P. mirabilis; assay: ESBL NDP test using cultured strains; format: biochemical, Proteus mirabilis; parameters: key: (+) and (−) referred to color change being, red to yellow or unchanged, respectively; (+) and (−) referred to color change being, red to yellow or unchanged, respectively
Experimental: as §1

[3] = tested on: P. mirabilis; assay: Susceptibility testing, MIC by Etest; format: cell-based, Proteus mirabilis
Experimental: Susceptibility testing was performed by determining MIC values using the Etest® (AB bioMérieux; Solna, Sweden) on Mueller-Hinton agar plates at 37° C. and results were recorded according to US guidelines (CLSI), as updated in 2012 (2). The breakpoints for cefotaxime are susceptible (S)≤1 and resistant (R)≥4 μg/ml, and for ceftazidime S≤4 and R≥16 μg/ml.

CO/N=C(\C(=O)N[C@@H]1C(=O)N2C(C(=O)O)=C(COC(C)=O)CS[C@H]12)c1csc(N)n1 [CTX, cefotaxime]
0.25 µg/mL: MICs range ([3]; P. mirabilis TEM-21, n=1)
>16 µg/mL: MICs range ([3]; P. mirabilis ACC-1, n=1) | MICs range ([3]; P. mirabilis CTX-M-14, n=1) | MICs range ([3]; P. mirabilis CTX-M-15, n=1) | MICs range ([3]; P. mirabilis PER-1, n=1) | MICs range ([3]; P. mirabilis TEM-52, n=1)
+: ESBL NDP Test from: Colonies ([1]; K. pneumoniae 09.127, SHV-2a) | ESBL NDP Test from: Colonies ([1]; K. pneumoniae 09.138, TEM-3) | ESBL NDP Test from: Colonies ([1]; K. pneumoniae 09.158, SHV-12) | ESBL NDP Test from: Colonies ([1]; K. pneumoniae 09.162, TEM-52) | ESBL NDP Test from: Colonies ([1]; K. pneumoniae 09.169, TEM-52) | ESBL NDP Test from: Colonies ([1]; K. pneumoniae 09.181, SHV-2a) | ESBL NDP Test from: Colonies ([1]; K. pneumoniae 09.200, TEM-3) | ESBL NDP Test from: Colonies ([1]; K. pneumoniae 09.217, SHV-5) | ESBL NDP Test from: Colonies ([1]; K. pneumoniae 09.45, SHV-12) | ESBL NDP Test from: Colonies ([1]; K. pneumoniae 09.60, SHV-5) | ESBL NDP Test from: Colonies ([1]; K. pneumoniae 09.99, SHV-2a) | ESBL NDP Test from: Colonies ([1]; K. pneumoniae 10.159, CTX-M-3) | Test (color change) ([1]; K. pneumoniae CTX-M-3, n=1) | Test (color change) ([1]; K. pneumoniae CTX-M-14, n=3) | Test (color change) ([1]; K. pneumoniae CTX-M-15, n=28) | Test (color change) ([1]; K. pneumoniae DHA-2, n=1) | ESBL NDP Test from: Colonies ([1]; K. pneumoniae FOR, DHA-2) | Test (color change) ([1]; K. pneumoniae GES-1, n=1) | ESBL NDP Test from: Colonies ([1]; K. pneumoniae MEK, CTX-M-15) | ESBL NDP Test from: Colonies ([1]; K. pneumoniae SHI, CTX-M-15) | Test (color change) ([1]; K. pneumoniae SHV-2a, n=4) | Test (color change) ([1]; K. pneumoniae SHV-5, n=2) | Test (color change) ([1]; K. pneumoniae SHV-12, n=2) | Test (color change) ([1]; K. pneumoniae SHV-28, n=3) | Test (color change) ([1]; K. pneumoniae TEM-3, n=3) | Test (color change) ([1]; K. pneumoniae TEM-52, n=2) | ESBL NDP Test from: Colonies ([2]; P. mirabilis 09.128, TEM-52) | Test (color change) ([2]; P. mirabilis CTX-M-14, n=1) | Test (color change) ([2]; P. mirabilis CTX-M-15, n=1) | Test (color change) ([2]; P. mirabilis PER-1, n=1) | Test (color change) ([2]; P. mirabilis TEM-21, n=1) | Test (color change) ([2]; P. mirabilis TEM-52, n=1)
−: ESBL NDP Test from: Colonies ([1]; K. pneumoniae 09.190, SHV-2a) | ESBL NDP Test from: Colonies ([1]; K. pneumoniae ANG, DHA-1) | ESBL NDP Test from: Colonies ([1]; K. pneumoniae BG 1202 5484, Penicillinase) | Test (color change) ([1]; K. pneumoniae DHA-1, n=1) | Test (color change) ([1]; K. pneumoniae SHV-2a, n=2) | Test (color change) ([1]; K. pneumoniae SHV-12, n=1) | Test (color change) ([1]; K. pneumoniae Wild-type penicillinase, n=2) | ESBL NDP Test from: Colonies ([2]; P. mirabilis 09.177, TEM-21) | Test (color change) ([2]; P. mirabilis ACC-1, n=1) | ESBL NDP Test from: Colonies ([2]; P. mirabilis BIK, ACC-1)
